# In patent US9901578B2, “Combination of 10-propargyl-10-deazaaminopterin and erlotinib for the treatment of non-small cell lung cancer” (Allos Therapeutics, Inc., priority 2007, dated 2018):
# Values joined by “and” are separate entries in the source; they are usually repeats but may differ in a detail not shown here. Identical values can stand only once. “Also recorded” adds a separate entry of the source. Like-named read-outs stand apart in the source and are kept apart here.
# Tests used:
# H460 cells = assay: Short-term uptake of radiolabeled drug in H460 cells; assay type: cell-based, human; details: for Total uptake of radiolabeled drug: measured at 15 and 60 minutes, PDX, MTX 5 μM, Alimta 20 μM
# [1] = system: FPGS activity (polyglutamylation); assay: Polyglutamylation of radiolabeled drug in H460 cells; assay type: cell-based, human; details: lysates of treated H460 cells; PDX, MTX 5 μM, Alimta 20 μM
# A549 cells = assay: In vitro growth inhibition in A549 cells; assay type: cell-based, human
# Experimental: The human non small lung carcinoma cell line A549 was purchased from the American Type Culture Collection (ATCC, Manassas, Va.). The cell line was cultured in Ham's F 12K medium with 2 mM L-glutamine 1.5 g/L sodium bicarbonate, supplemented with 10% fetal bovine serum and was maintained at 37° C. in a humidified atmosphere at 5% CO2 and 95% air.
# An in vitro study in A549 cells was performed to compare the growth inhibition activity of PDX to that of cisplatin, paclitaxel, and docetaxel.
# [2] = Experimental: To evaluate the doses to be tested in the xenograft mouse model, non-tumor bearing female athymice nu/nu mice were treated with 2 mg/kg of PDX alone and in combination with 50 mg/kg of Tarceva® as described in Table 1. Animals were monitored daily for routine health observation. Body weight of the animals was recorded daily during the treatment phase and thereafter twice weekly for 14 days after the last treatment).
# A549 xenograft = A549 xenograft mouse model, tumor volume; assay type: in vivo, athymic nu/nu mice; details: for Effect on tumor growth: 35 days
# Experimental: Xenotransplant of A549 was established by subcutaneous inoculation of 5×10^6 cells on the right flank using a 21G needle in 6-8 week female athymic nude mice. A total of 75 animals were injected with A549 xenotransplant. Tumor volume was monitored twice weekly, once the established tumor reached 75-150 mm^3 (individual tumor range between 70 to 200 mm^3) the mice were randomized to the different groups as described in Table 2.
# Tumor volume and body weights were measured twice weekly up to 58 days following A549 inoculation. Tumor volume was calculated using the following formula: Tumor volume=(A^2×B/2) where A is the smallest diameter and B is the largest diameter.
# The treatment was initiated on the day of randomization according to the schedule described in Table 2. PDX was administered via IP injection and Tarceva® by oral gavage. PBS and 0.5% CMC were administrated to Group 1 as control vehicles by IP and PO routes, respectively.
# Statistical analysis was performed using Graphpad Prism software. Comparison between control group and treatment groups was performed using 2 way ANOVA analysis.
# human recombinant DHFR = biological target: T1, human recombinant DHFR (Homo sapiens, UniProt P00374); assay: DHFR inhibition in a cell-free assay; assay type: biochemical; details: read-out: Apparent Ki for DHFR inhibition
# T1 sequence (P00374 1-187): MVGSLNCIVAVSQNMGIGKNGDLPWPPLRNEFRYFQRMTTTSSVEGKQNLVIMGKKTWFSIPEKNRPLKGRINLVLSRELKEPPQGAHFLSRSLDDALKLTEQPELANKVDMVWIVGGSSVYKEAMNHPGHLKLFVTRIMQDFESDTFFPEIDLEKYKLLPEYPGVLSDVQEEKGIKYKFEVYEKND
# Excerpt: (§1) Endpoints included mean tumor growth inhibition or regression. We further evaluated activity and/or expression of folate-dependent enzymes: DHFR, thymidylate synthase (TS), and folylpolyglutamate synthase (FPGS) using kinetic assays and immunostaining in tumors harvested at the end of the study from animals treated with the antifolates or vehicle controls. In vitro studies included evaluation of reduced folate carrier (RFC) expression by quantitative RT-PCR in MV522, and H460, xenograft models. […] Inhibition of DHFR by the three antifolates was quantified in a cell-free assay against human recombinant DHFR.
# H460 xenografts = assay: H460 non-small cell lung carcinoma human tumor xenograft; assay type: in vivo; details: PDX 1 mg/kg and 2 mg/kg
# Excerpt: as §1
# MV522 xenografts = assay: MV522 non-small cell lung carcinoma human tumor xenograft; assay type: in vivo; details: PDX 1 mg/kg and 2 mg/kg
# Excerpt: as §1
# [3] = system: TS enzymatic activity and protein expression, and DHFR protein content; assay: Activity/expression of folate-dependent enzymes in harvested tumors; assay type: in vivo; details: H460 and MV522 tumor xenografts
# Excerpt: as §1
smiles,measurement,setting,value
"Nc1nc2[nH]cc(CCc3ccc(C(=O)N[C@@H](CCC(=O)O)C(=O)O)cc3)c2c(=O)[nH]1 [Alimta, pemetrexed]",Total uptake of radiolabeled drug,H460 cells,decreased later
same,Polyglutamylation,[1],much lesser polyglutamylation
N.N.[Cl][Pt][Cl] [Cisplatin],IC50,A549 cells,22.4 nM
"C#CCC(Cc1cnc2nc(N)nc(N)c2n1)c1ccc(C(=O)N[C@@H](CCC(=O)O)C(=O)O)cc1 (stereo partly shown) [PDX, 10-Propargyl-10-deazaaminopterin]",IC50,A549 cells; Homo sapiens,65.1 nM
same,Tolerability,"[2]; PDX 2 mg/kg IP QDx5 two cycles, Tarceva 50 mg/kg PO QDx21, alone or combined",well tolerated
same,Effect on tumor growth,A549 xenograft; PDX 1 mg/kg IP QDx5 two cycles,a trend in reducing tumor growth; also recorded: a trend toward controlling tumor growth
same,Tumor volume Avg ± SD,"A549 xenograft; PDX 1 mg/kg IP QDx5 two cycles, day 0",132 ± 52. mm^3
same,Tumor volume Avg ± SD,"A549 xenograft; PDX 1 mg/kg IP QDx5 two cycles, day 3",148 ± 67. mm^3
same,Tumor volume Avg ± SD,"A549 xenograft; PDX 1 mg/kg IP QDx5 two cycles, day 7",176 ± 87. mm^3
same,Tumor volume Avg ± SD,"A549 xenograft; PDX 1 mg/kg IP QDx5 two cycles, day 10",158 ± 93. mm^3
same,Tumor volume Avg ± SD,"A549 xenograft; PDX 1 mg/kg IP QDx5 two cycles, day 14",199 ± 79. mm^3
same,Tumor volume Avg ± SD,"A549 xenograft; PDX 1 mg/kg IP QDx5 two cycles, day 17",190 ± 78. mm^3
same,Tumor volume Avg ± SD,"A549 xenograft; PDX 1 mg/kg IP QDx5 two cycles, day 21",179 ± 112 mm^3
same,Tumor volume Avg ± SD,"A549 xenograft; PDX 1 mg/kg IP QDx5 two cycles, day 24",191 ± 105 mm^3
same,Tumor volume Avg ± SD,"A549 xenograft; PDX 1 mg/kg IP QDx5 two cycles, day 28",201 ± 114 mm^3
same,Tumor volume Avg ± SD,"A549 xenograft; PDX 1 mg/kg IP QDx5 two cycles, day 35",224±128 mm^3
same,Effect on tumor growth,A549 xenograft; PDX 2 mg/kg IP QDx5 two cycles,a trend in reducing tumor growth; also recorded: a trend toward controlling tumor growth; also recorded: inhibited the growth of the A549 xenografts
same,Tumor volume Avg ± SD,"A549 xenograft; PDX 2 mg/kg IP QDx5 two cycles, day 0",131 ± 49. mm^3
same,Tumor volume Avg ± SD,"A549 xenograft; PDX 2 mg/kg IP QDx5 two cycles, day 3",133 ± 60. mm^3
same,Tumor volume Avg ± SD,"A549 xenograft; PDX 2 mg/kg IP QDx5 two cycles, day 7",166 ± 75. mm^3
same,Tumor volume Avg ± SD,"A549 xenograft; PDX 2 mg/kg IP QDx5 two cycles, day 10",139 ± 70. mm^3
same,Tumor volume Avg ± SD,"A549 xenograft; PDX 2 mg/kg IP QDx5 two cycles, day 14",207 ± 100 mm^3
same,Tumor volume Avg ± SD,"A549 xenograft; PDX 2 mg/kg IP QDx5 two cycles, day 17",174 ± 104 mm^3
same,Tumor volume Avg ± SD,"A549 xenograft; PDX 2 mg/kg IP QDx5 two cycles, day 21",194 ± 114 mm^3
same,Tumor volume Avg ± SD,"A549 xenograft; PDX 2 mg/kg IP QDx5 two cycles, day 24",194 ± 101 mm^3
same,Tumor volume Avg ± SD,"A549 xenograft; PDX 2 mg/kg IP QDx5 two cycles, day 28",189 ± 106 mm^3
same,Tumor volume Avg ± SD,"A549 xenograft; PDX 2 mg/kg IP QDx5 two cycles, day 35",210±109 mm^3
same,Ki,human recombinant DHFR,45 nM
same,Tumor growth,H460 xenografts,dose-dependently inhibited tumor growth
same,Tumor growth,MV522 xenografts,dose-dependently inhibited tumor growth
same,"Effect on TS enzymatic activity and protein expression, and DHFR protein content",[3],down-regulated most of these endpoints
same,Total uptake of radiolabeled drug,H460 cells,increased over time
same,Polyglutamylation,[1],greater polyglutamylation
CC(=O)O[C@H]1C(=O)[C@@]2(C)[C@H]([C@H](OC(=O)c3ccccc3)[C@]3(O)C[C@H](OC(=O)[C@H](O)[C@@H](NC(=O)c4ccccc4)c4ccccc4)C(C)=C1C3(C)C)[C@]1(OC(C)=O)CO[C@@H]1C[C@@H]2O [Paclitaxel],IC50,A549 cells; Homo sapiens,109 nM
"C#Cc1cccc(Nc2ncnc3cc(OCCOC)c(OCCOC)cc23)c1 [Tarceva, [6,7-bis(2-methoxyethoxy)-4-quinazolin-4-yl]-(3-ethynylphenyl)amine, reference compound]",Tolerability,"[2]; mouse, in vivo",well tolerated
same,Effect on tumor growth,A549 xenograft; Tarceva 50 mg/kg PO,did not control tumor growth
same,Tumor volume Avg ± SD,"A549 xenograft; Tarceva 50 mg/kg PO, day 0",131 ± 47. mm^3
same,Tumor volume Avg ± SD,"A549 xenograft; Tarceva 50 mg/kg PO, day 3",166 ± 80. mm^3
same,Tumor volume Avg ± SD,"A549 xenograft; Tarceva 50 mg/kg PO, day 7",216 ± 121 mm^3
same,Tumor volume Avg ± SD,"A549 xenograft; Tarceva 50 mg/kg PO, day 10",214 ± 140 mm^3
same,Tumor volume Avg ± SD,"A549 xenograft; Tarceva 50 mg/kg PO, day 14",249 ± 130 mm^3
same,Tumor volume Avg ± SD,"A549 xenograft; Tarceva 50 mg/kg PO, day 17",271 ± 206 mm^3
same,Tumor volume Avg ± SD,"A549 xenograft; Tarceva 50 mg/kg PO, day 21",270 ± 210 mm^3
same,Tumor volume Avg ± SD,"A549 xenograft; Tarceva 50 mg/kg PO, day 24",294 ± 261 mm^3
same,Tumor volume Avg ± SD,"A549 xenograft; Tarceva 50 mg/kg PO, day 28",308 ± 280 mm^3
same,Tumor volume Avg ± SD,"A549 xenograft; Tarceva 50 mg/kg PO, day 35",358±282 mm^3 and 357 ± 282 mm^3
"CN(Cc1cnc2nc(N)nc(N)c2n1)c1ccc(C(=O)N[C@@H](CCC(=O)O)C(=O)O)cc1 [MTX, methotrexate]",Fraction of radiolabeled drug that entered the cells,H460 cells; in comparison with PDX or Alimta,significantly smaller fraction
same,Polyglutamylation,[1],much lesser polyglutamylation
CC(=O)O[C@@]12CO[C@@H]1C[C@H](O)[C@@]1(C)C(=O)[C@H](O)C3=C(C)[C@@H](OC(=O)[C@H](O)[C@@H](NC(=O)OC(C)(C)C)c4ccccc4)C[C@@](O)([C@@H](OC(=O)c4ccccc4)[C@H]21)C3(C)C [Docetaxel],IC50,A549 cells; Homo sapiens,23.6 nM
